Data taken from patent publication US20240255531A1, “MATURE ADRENOMEDULLIN FOR THERAPY STRATIFICATION OF CORTICOSTEROIDS IN CRITICALLY ILL PATIENTS” (priority 2021, published 2024).
Where two headings read alike, the source gives them in different places. Each block holds one molecule with its values, some of them ahead of it.

How the values were obtained:
[1] = relative to hydrocortisone; cited from earlier work
[2] = relative to hydrocortisone; cited from earlier work; remark: listed apart in the source
[3] = system: hypothalamic-pituitary-adrenal axis suppression; details: cited from earlier work
[4] = system: patients at risk for sepsis / septic shock; details: preventive administration; cited from earlier work
[5] = system: patients with septic shock; details: hydrocortisone alone; cited from earlier work
[6] = system: adult patients with severe sepsis who were not in septic shock; experiment: HYPRESS case-control analysis, hydrocortisone vs. placebo by bio-ADM </>70 pg/mL (PP population); type: in vivo, human; details: for patients who developed shock: PP population
Description: The HYPRESS study is a double-blind, randomized clinical trial conducted from Jan. 13, 2009, to Aug. 27, 2013, with a follow-up of 180 days until Feb. 23, 2014 (Keh et al. 2016. JAMA 316(17): 1775-1785). The trial was performed in 34 intermediate or intensive care units of university and community hospitals in Germany, and it included 380 adult patients with severe sepsis who were not in septic shock.
Patients were screened in intermediate care units or intensive care units (ICUs) of university and community hospitals for eligibility, and written informed consent was obtained from patients, patient-authorized representatives, or legal representatives. Patients were enrolled if they met all inclusion criteria: (1) provided informed consent; (2) had evidence of infection; (3) had evidence of a systemic response to infection, defined as at least 2 systemic inflammatory response syndrome criteria 12; and (4) had evidence of organ dysfunction present for not longer than 48 hours. The main exclusion criterion was septic shock. Other exclusion criteria were being younger than 18 years, having known hypersensitivity to hydrocortisone or mannitol (placebo), or having a history of glucocorticoid medication with indication for continuation of therapy or other indications for treatment with glucocorticoids. Patients were not excluded for using etomidate within 72 hours before enrolment, using a short course of glucocorticoids within 72 hours before enrolment, or using topical or inhaled glucocorticoids.
Septic shock was defined as sepsis-induced hypotension despite adequate volume status for longer than 4 hours (ie, mean arterial pressure <65 mm Hg, systolic arterial pressure <90 mm Hg, or the use of vasopressors to keep mean arterial pressure ≥65 mm Hg or systolic arterial pressure ≥90 mm Hg). […] Adequate volume status was defined as a central venous pressure of 8 mm Hg or greater (≥12 mm Hg in ventilated patients) and a central venous oxygen saturation greater than 70%. For fluid replacement, patients were to receive at least 500 to 1000 mL of crystalloids or 300 to 500 mL of colloids over 30 minutes. The use of hydroxyethyl starch preparations was discouraged owing to possible harmful effects on kidney function. Use of vasopressors was defined as therapy with dopamine at a dosage of at least 5 μg/kg/min or with any dose of epinephrine, norepinephrine, vasopressin, or other vasopressors.
The study medication (hydrocortisone and placebo) was produced and released by BAG Health Care GmbH. The medication was delivered in boxes, each containing 17 brown glass vials for 1 patient. Each vial contained 100 mg of lyophilized hydrocortisone hydrogen succinate or the same amount of lyophilized mannitol as placebo, which was indistinguishable from hydrocortisone. The medication was administered as an intravenous bolus of 50 mg, followed by a 24-hour continuous infusion of 200 mg on 5 days, 100 mg on days 6 and 7, 50 mg on days 8 and 9, and 25 mg on days 10 and 11.
For the present analysis, a total of n=110 cases and controls from the intention-to-treat data set of the SepNet study HYPRESS study (ClinicalTrials.gov number: NCT00670254) were selected, of which n=97 were treated according to protocol and selected for the analysis. Patients with and without septic shock during their ICU stay were selected at a 1:1 ratio. Control patients were matched according to demographics, organ dysfunction, concomitant medication and other outcomes.
The primary end point for the case-control study was the occurrence of septic shock within 28 days, or discharge from the ICU. The goal was to identify potential interaction between the levels of bio-ADM (</>70 pg/mL) and treatment arm (hydrocortisone vs. placebo).

[7] = Stability of human Adrenomedullin in human Citrate plasma at 24° C.; type: in vitro ADME; details: for recovery: 10 ng ADM/ml, read-out: Average ADM recovery (N = 5); for Average loss of immune reactivity: average over time points
Description: Human ADM was diluted in human Citrate plasma (n=5, final concentration 10 ng ADM/ml) and incubated at 24° C. At selected time points, aliquots were frozen at −20° C.

Structure (SMILES): CC(=O)OCC(=O)[C@@]1(O)CC[C@H]2[C@@H]3CCC4=CC(=O)CC[C@]4(C)[C@H]3C(=O)C[C@@]21C [Cortisone acetate]
Potency relat. to hydrocortisone, Mineralcorticoid [1]: 0.8 | Potency relat. to hydrocortisone, Anti-inflammatory [2]: 0.8 | Half-life duration of action [3]: 8 to 12 h

Structure (SMILES): C[C@]12CCC(=O)C=C1CC[C@H]1[C@@H]3CC[C@](O)(C(=O)CO)[C@@]3(C)C[C@H](O)[C@@]12F [Fludrocortisone]
Half-life duration of action [3]: 24 to 36 h

Structure (SMILES): C[C@]12CCC(=O)C=C1CC[C@@H]1[C@@H]2[C@@H](O)C[C@@]2(C)[C@H]1CC[C@]2(O)C(=O)CO [Hydrocortisone]
Potency relat. to hydrocortisone, Mineralcorticoid [1]: 1 | Potency relat. to hydrocortisone, Anti-inflammatory [2]: 1 | Half-life duration of action [3]: 8 to 12 h | risk of a septic shock within 14 days [4]: doesn't reduces the risk | survival effect [5]: no survival effect | needed additional treatment with Benzodiazepine ([6]; patients with bio-AD<70 pg/mL): 12.0% | median length of stay ([6]; patients with bio-ADM<70 pg/mL): 22 days | needed a surgical intervention ([6]; patients with bio-ADM<70 pg/mL): 48.0% | needed additional treatment with Propofol ([6]; patients with bio-ADM<70 pg/mL): 16.0% | needed additional treatment with opioids ([6]; patients with bio-ADM<70 pg/mL): 40.0% | survived the 90-day follow up ([6]; patients with bio-ADM<70 pg/mL): 76.0% | patients who developed shock ([6]; patients with bio-ADM<70 pg/mL): 40% | median length of stay ([6]; patients with bio-ADM>70 pg/mL): 25 days | needed a surgical intervention ([6]; patients with bio-ADM>70 pg/mL): 27.3% | needed additional treatment with Benzodiazepine ([6]; patients with bio-ADM>70 pg/mL): 13.6% | needed additional treatment with Propofol ([6]; patients with bio-ADM>70 pg/mL): 4.5% | needed additional treatment with opioids ([6]; patients with bio-ADM>70 pg/mL): 31.8% | survived the 90-day follow up ([6]; patients with bio-ADM>70 pg/mL): 72.7% | patients who developed shock ([6]; patients with bio-ADM>70 pg/mL): 50%

Structure (SMILES): C[C@H]1C[C@@H]2[C@H]([C@@H](O)C[C@@]3(C)[C@H]2CC[C@]3(O)C(=O)CO)[C@@]2(C)C=CC(=O)C=C12 [Methylprednisolone]
Half-life duration of action [3]: 12 to 36 h

Structure (SMILES): C[C@]12C=CC(=O)C=C1CC[C@@H]1[C@@H]2[C@@H](O)C[C@@]2(C)[C@H]1CC[C@]2(O)C(=O)CO [Prednisolone]
Potency relat. to hydrocortisone, Mineralcorticoid [1]: 0.8 | Potency relat. to hydrocortisone, Anti-inflammatory [2]: 4 | Half-life duration of action [3]: 12 to 36 h

Structure (SMILES): C[C@]12C=CC(=O)C=C1CC[C@@H]1[C@@H]2C(=O)C[C@@]2(C)[C@H]1CC[C@]2(O)C(=O)CO [Prednisone]
Half-life duration of action [3]: 12 to 36 h

recovery ([7]; 0 h): 100% | Loss of immune reactivity %/h ([7]; 2 h): 0.4 %/h | recovery ([7]; 2 h): 99.2% | Loss of immune reactivity %/h ([7]; 4 h): 0.8 %/h | recovery ([7]; 4 h): 96.4% | Loss of immune reactivity %/h ([7]; 8 h): 1.5 %/h | recovery ([7]; 8 h): 88.2% | Average loss of immune reactivity [7]: Average: 0.9%/h | Average loss of immune reactivity ([7]; listed as ADM): 0.9 %/h | metabolised at 2 h, 10 ng/ml ([7]; human citrate plasma, 2 h, read-out: Relative loss of immune reactivity): 0.8% | metabolised at 4 h, 10 ng/ml ([7]; human citrate plasma, 4 h, read-out: Relative loss of immune reactivity): 3.6% | metabolised at 8 h, 10 ng/ml ([7]; human citrate plasma, 8 h, read-out: Relative loss of immune reactivity): 11.8%
Structure (SMILES): CC[C@H](C)[C@H](NC(=O)[C@H](CCC(N)=O)NC(=O)[C@H](Cc1c[nH]cn1)NC(=O)[C@H](C)NC(=O)[C@H](CC(C)C)NC(=O)[C@H](CCCCN)NC(=O)[C@H](CCC(N)=O)NC(=O)[C@@H](NC(=O)[C@@H](NC(=O)[C@@H]1CSSC[C@H](NC(=O)CNC(=O)[C@H](Cc2ccccc2)NC(=O)[C@H](CO)NC(=O)[C@H](CCCNC(=N)N)NC(=O)[C@H](CC(C)C)NC(=O)CNC(=O)[C@H](CCC(N)=O)NC(=O)[C@H](Cc2ccccc2)NC(=O)[C@H](CC(N)=O)NC(=O)[C@H](CC(N)=O)NC(=O)[C@H](CCSC)NC(=O)[C@H](CO)NC(=O)[C@H](CCC(N)=O)NC(=O)[C@H](CCCNC(=N)N)NC(=O)[C@@H](N)Cc2ccc(O)cc2)C(=O)N[C@@H](CCCNC(=N)N)C(=O)N[C@@H](Cc2ccccc2)C(=O)NCC(=O)N[C@@H]([C@@H](C)O)C(=O)N1)[C@@H](C)O)C(C)C)C(=O)N[C@@H](Cc1ccc(O)cc1)C(=O)N[C@@H](CCC(N)=O)C(=O)N[C@@H](Cc1ccccc1)C(=O)N[C@H](C(=O)N[C@@H](CC(=O)O)C(=O)N[C@@H](CCCCN)C(=O)N[C@@H](CC(=O)O)C(=O)N[C@@H](CCCCN)C(=O)N[C@@H](CC(=O)O)C(=O)N[C@@H](CC(N)=O)C(=O)N[C@H](C(=O)N[C@@H](C)C(=O)N1CCC[C@H]1C(=O)N[C@@H](CCCNC(=N)N)C(=O)N[C@@H](CO)C(=O)N[C@@H](CCCCN)C(=O)N[C@H](C(=O)N[C@@H](CO)C(=O)N1CCC[C@H]1C(=O)N[C@@H](CCC(N)=O)C(=O)NCC(=O)N[C@@H](Cc1ccc(O)cc1)C(N)=O)[C@@H](C)CC)C(C)C)[C@@H](C)O [hADM]
